Experimental data reported in patent publication US7595401B2, “Therapeutic compounds and their use in cancer” (Myriad Pharmaceuticals, Inc., priority 2006, dated 2009).
pIC50: −log10 of the molar value.

Target: purified human Hsp90
Assay: Binding Assay: fluorescence polarization with BODIPY-labeled geldanamycin
Details: BODIPY-GM 10 nM, Hsp90 30 nM
Description: Compound binding to purified Hsp90 was monitored using BODIPY-labeled geldanamycin (BODIPY-GM) in a fluorescence polarization assay adapted from Kim et al. (Journal of Biomolecular Screening 2004, 9(5):375-381). Compound dilutions (in 100% DMSO) were added to black-bottom 96-well plates (Greiner; 2% DMSO final), and equal volumes of BODIPY-GM (10 nM final) and purified human Hsp90 (Stressgen, SPP-770; 30 nM final) in assay buffer (20 mM HEPES-KOH pH 7.3, 50 mM KCl, 5 mM MgCl2, 20 mM Na2MoO4, 0.01% NP-40, 0.1 mg/mL bovine gamma globulin [Invitrogen, P2045], 2 mM DTT) were added sequentially to yield a final volume of 50 microliters. Plates were incubated overnight at room temperature. Parallel and perpendicular fluorescence measurements were read (LJL BioSystems Analyst AD plate reader) with excitation/emission wavelengths of 485/530 nm. Background fluorescence (buffer only) was subtracted, and fluorescence polarization (FP) values, expressed in mP units, were calculated from parallel and perpendicular fluorescence readings as follows: FP=(parallel−perpendicular)/(parallel+perpendicular)*1000
Percent inhibition was calculated by normalizing the FP values to those obtained in parallel reactions containing DMSO and subtracting these normalized values from 100%. Intrinsic compound fluorescence was independently monitored, and FP data points confounded by compound fluorescence were excluded from the analysis.

Row | pIC50 | % Inhibition at 5 μM Compound Concentration [%] | Compound
1 | 6.47 | – | COc1ccc(OC)c(Sc2nc3c(N)ncnc3n2CCc2ccccc2)c1 [Example 1, 8-(2,5-Dimethoxy-phenylsulfanyl)-9-phenethyl-9H-purin-6-ylamine]
2 | 5.46 | – | COc1ccc(OC)c(Sc2nc3c(N)ncn(CCc4ccccc4)c-3n2)c1 [Example 2, 8-(2,5-dimethoxy-phenylsulfanyl)-3-phenethyl-3H-purin-6-ylamine]
3 | – | 36 | COc1ccc(OC)c(Sc2nc3c(N)ncnc3n2CCCc2ccccc2)c1 [Example 3, 8-(2,5-Dimethoxy-phenylsulfanyl)-9-(3-phenyl-propyl)-9H-purin-6-ylamine]
4 | 6.19 | 75 | Nc1ncnc2c1nc(Sc1ccc3c(c1)OCO3)n2CCc1ccccc1 [Example 4, 8-(Benzo[1,3]dioxol-5-ylsulfanyl)-9-phenethyl-9H-purin-6-ylamine]
5 | – | 8 | Nc1ncn(CCc2ccccc2)c2nc(Sc3ccc4c(c3)OCO4)nc1-2 [Example 5, 8-(benzo[1,3]dioxol-5-ylsulfanyl)-3-phenethyl-3H-purin-6-ylamine]

Second part, the compound before the results:

Row | Compound | pIC50 | % Inhibition at 5 μM Compound Concentration [%]
6 | CCOC(=O)[C@@H]1C[C@H](CCn2c(Sc3cc4c(cc3Br)OCO4)nc3c(N)ncnc32)CCN1C(=O)OC(C)(C)C (relative stereo) [Example 422, 1-tert-Butyl 2-ethyl cis-4-(2-{6-amino-8-[(6-bromo-1,3-benzodioxol-5-yl)thio]-9H-purin-9-yl}ethyl)piperidine-1,2-dicarboxylate] | < 5.52 | –
7 | CCOC(=O)[C@@H]1C[C@H](CCn2cnc(N)c3nc(Sc4cc5c(cc4Br)OCO5)nc2-3)CCN1C(=O)OC(C)(C)C (relative stereo) [Example 423, 1-tert-Butyl 2-ethyl cis-4-(2-{6-amino-8-[(6-bromo-1,3-benzodioxol-5-yl)thio]-3H-purin-3-yl}ethyl)piperidine-1,2-dicarboxylate] | – | 0
8 | CC(C)[C@H]1C[C@H](CCn2c(Sc3cc4c(cc3Br)OCO4)nc3c(N)ncnc32)CCN1C(=O)OC(C)(C)C (relative stereo) [Example 428, tert-Butyl trans-4-(2-{6-amino-8-[(6-bromo-1,3-benzodioxol-5-yl)thio]-9H-purin-9-yl}ethyl)-2-isopropylpiperidine-1-carboxylate] | < 5.10 | –
9 | CC(C)[C@@H]1C[C@H](CCn2c(Sc3cc4c(cc3Br)OCO4)nc3c(N)ncnc32)CCN1C(=O)OC(C)(C)C (relative stereo) [Example 429, tert-Butyl cis-4-(2-{6-amino-8-[(6-bromo-1,3-benzodioxol-5-yl)thio]-9H-purin-9-yl}ethyl)-2-isopropylpiperidine-1-carboxylate] | 5.42 | –
10 | CC(C)[C@@H]1C[C@H](CCn2cnc(N)c3nc(Sc4cc5c(cc4Br)OCO5)nc2-3)CCN1C(=O)OC(C)(C)C (relative stereo) [Example 430, tert-Butyl cis-4-(2-{6-amino-8-[(6-bromo-1,3-benzodioxol-5-yl)thio]-3H-purin-3-yl}ethyl)-2-isopropylpiperidine-1-carboxylate] | – | 15
11 | CC(C)[C@H]1C[C@H](CCn2c(Sc3cc4c(cc3Br)OCO4)nc3c(N)ncnc32)CCN1 (relative stereo) [Example 479, 8-[(6-bromo-1,3-benzodioxol-5-yl)thio]-9-{2-[trans-2-isopropylpiperidin-4-yl]ethyl}-9 H-purin-6-amine] | 6.70 | –
12 | CC(C)[C@@H]1C[C@H](CCn2c(Sc3cc4c(cc3Br)OCO4)nc3c(N)ncnc32)CCN1 (relative stereo) [Example 480, 8-[(6-bromo-1,3-benzodioxol-5-yl)thio]-9-{2-[cis-2-isopropylpiperidin-4-yl]ethyl}-9 H-purin-6-amine] | 6.80 | –
13 | CCOC(=O)[C@@H]1C[C@H](CCn2cnc(N)c3nc(Sc4cc5c(cc4Br)OCO5)nc2-3)CCN1 (relative stereo) [Example 482, Ethyl cis-4-(2-{6-amino-8-[(6-bromo-1,3-benzodioxol-5-yl)thio]-3 H-purin-3-yl}ethyl)piperidine-2-carboxylate] | – | 0.0
